Source: US5834461A, “Tricyclic benzazepine vasopressin antagonists” (American Cyanamid Company, priority 1997, dated 1998)

Experiments:
vasopressin V2 = experiment: Vasopressin V2 Antagonist Activity in Conscious Hydrated Rats (diuretic effect); type: in vivo, normal Sprague-Dawley rats; details: AVP 0.4 μg/kg i.p.
Description: Conscious hydrated rats are treated with compounds under study from 0.1 to 100 mg/kg orally or vehicle. Two to four rats are used for each compound. One hour later, arginine vasopressin (AVP, antidiuretic hormore, ADH) dissolved in peanut oil is administered at 0.4 μg/kg intraperitoneally. Two rats in each test would not receive arginine vasopressin but only the vehicle (peanut oil) to serve as water-loading control. Twenty minutes later each rat is given 30 mL/kg of deionized water orally by gavage and is placed individually in a metabolic cage equipped with a funnel and a graduated glass cylinder to collect urine for four hours. Urine volume is measured and osmolality analyzed by use of a Fiske One-Ten osmometer (Fiske Assoc., Norwood, Mass., USA). Urinary sodium, potassium, and chloride are analyzed by use of ion-specific electrodes in a Beckman E3 (Electrolyte 3) Analyzer. In the following results, […] and decreased osmolality relative to AVP-control indicates activity.

[1] = molecular target: T1, rat kidney medullary V2 receptors (Rattus norvegicus, UniProt Q00788); experiment: Binding Assay to Rat Kidney Medullary V2 Receptors; details: rat kidney medullary V2
T1 construct: Medullary tissues from rat kidneys are dissected out; from tissue; host or cells: rat kidney medulla membranes
Description: Medullary tissues from rat kidneys are dissected out, cut into small pieces and soaked in a […] sodium chloride solution containing 1.0 mM EDTA with many changes of the liquid phase, until the solution is clear of blood. The tissue is homogenized in a 0.25M sucrose solution containing 1.0 mM EDTA and 0.1 mM PMSF using a Potter-Elvehjem homogenizer with a teflon pestle. The homogenate is filtered through several layers (4 layers) of cheese cloth. The filtrate is rehomogenized using a dounce homogenizer, with a tight fitting pestle. The final homogenate is centrifuged at 1500×g for 15 min. The nuclear pellet is discarded and the supernatant fluid recentrifuged at 40,000×g for 30 min. The resulting pellet formed contains a dark inner part with the exterior, slightly pink. The pink outer part is suspended in a small amount of 50.0 mM Tris.HCl buffer, pH 7.4. The protein content is determined by the Lowry's method (Lowry et al., J. Biol. Chem., 1953). The membrane suspension is stored at -70° C., in 50.0 mM Tris.HCl, containing 0.2% inactivated BSA and 0.1 mM PMSF in aliquots of 1.0 ml containing 10.0 mg protein per ml of suspension until use in subsequent binding experiments.
For binding experiments, the following is added in μl volume to wells of a 96 well format of a microtiter plate: 100.0 μl of 100.0 mM Tris.HCl buffer containing 0.2% heat inactivated BSA, 10.0 mM MgCl2 and a mixture of protease inhibitors: leupeptin, 1.0 mg %; aprotinin, 1.0 mg %; 1,10-phenanthroline, 2.0 mg %; trypsin inhibitor, 10.0 mg % and 0.1 mM PMSF, 20.0 μl of [^3 H] Arginine^8, vasopressin (S.A. 75.0 Ci/mmole) at 0.8 nM and the reaction initiated by the addition of 80.0 μl of tissue membranes (200.0 μg tissue protein). The plates are left undisturbed on the bench top for 120 min to reach equilibrium. Non-specific binding is assessed in the presence of 1.0 μM of unlabeled ligand, added in 20 μl volume. For test compounds, these are solubilized in 50% dimethylsulfoxide (DMSO) and added in 20.0 μl volume to a final incubation volume of 200 μl. Upon completion of binding, the content of each well is filtered off, using a Brandel® cell Harvester (Gaithersburg, Md.). The radioactivity trapped on the filter disk by the ligand-receptor complex is assessed by liquid scintillation counting in a Packard LS Counter, with an efficiency of 65% for tritium.

[2] = molecular target: vasopressin V1 receptor (rat liver plasma membranes) (Rattus norvegicus, UniProt P30560); experiment: Binding Assay to Rat Hepatic V1 Receptors; details: rat hepatic V1
Description: Rat liver plasma membranes expressing the vasopressin V1 receptor subtypes are isolated by sucrose density gradient according to the method described by Lesko et al., (1973). These membranes are quickly suspended in 50.0 mM Tris.HCl buffer, pH 7.4, containing 0.2% bovine serum albumin (BSA) and 0.1 mM phenylmethylsulfonylfluoride (PMSF) and kept frozen at -70° C. until used in subsequent binding experiments. For binding experiments, the following is added to the wells of a ninety-six well format microtiter plate: 100 μl of 100.0 mM Tris.HCl buffer containing 10.0 mM MgCl2, 0.2% heat inactivated BSA and a mixture of protease inhibitors: leupeptin, 1.0 mg %; aprotinin, 1.0 mg %; 1,10-phenanthroline,2.0 mg %; trypsin inhibitor, 10.0 mg % and 0.1 mM PMSF, 20.0 μl of [phenylalanyl-3,4,5,-^3 H] vasopressin (S.A. 45.1 Ci/mmole) at 0.8 nM, and the reaction initiated by the addition of 80 μl of tissue membranes containing 20 μg of tissue protein. The plates are kept undisturbed on the bench top at room temperature for 120 min. to reach equilibrium. Non-specific samples are assayed in the presence of 0.1 μM of the unlabeled antagonist phenylalanylvasopressin, added in 20.0 μl volume.
For test compounds, these are solubilized in 50% dimethylsulfoxide (DMSO) and added in 20.0 μl volume to a final incubation volume of 200 μl. Upon completion of binding, the content of each well is filtered off, using a Brandel® cell Harvester (Gaithersburg, Md.). The radioactivity trapped on the filter disk by the ligand-receptor complex is assessed by liquid scintillation counting in a Packard LS Counter, with an efficiency of 65% for tritium.

vasopressin V1 = experiment: Vasopressin V1 Antagonist Activity in Conscious Rats (vasopressin vasopressor response); type: in vivo, rat (spontaneously hypertensive rats); set-up: Average Change: unit not given here
Description: Conscious rats are restrained in a supine position with elastic tape. The area at the base of the tail is locally anesthetized by subcutaneous infiltration with 2% procaine (0.2 ml). Using aseptic technique the ventral caudal tail artery is isolated and a cannula made of PE 10 and 20 (heat-fused) tubing is passed into the lower abdominal aorta. The cannula is secured, heparinized (1000 i.u./cc), sealed and the wound closed with one or two stitches of Dexon 4-0. The caudal vein is also cannulated in the same manner for intravenous drug administration. The duration of the surgery is approximately 5 minutes. Additional local anesthesia (2% procaine or lidocaine) is provided as needed.
The animals are placed in plastic restraining cages in an upright position. The cannula is attached to a Statham P23Db pressure transducer and pulsatile blood pressure is recorded. […] The vasopressin injections are repeated 30, 60, 90, 120, 180, 240 and 300 min. later. Percentage of antagonism by the compound is calculated using the pre-drug vasopressin vasopressor response as 100%.

[3] = 10 mg/kg i.v., VAS 0.01 i.u./kg, 30 min
[4] = 10 mg/kg i.v., VAS 0.02 i.u./kg, 30 min
[5] = 20 mg/kg i.v., VAS 0.01 i.u./kg, 60 min
[6] = 20 mg/kg i.v., VAS 0.01 i.u./kg, 90 min
[7] = 20 mg/kg i.v., VAS 0.01 i.u./kg, 120 min
[8] = 20 mg/kg i.v., VAS 0.01 i.u./kg, 180 min
[9] = 20 mg/kg i.v., VAS 0.01 i.u./kg, 240 min
[10] = 20 mg/kg i.v., VAS 0.01 i.u./kg, 300 min
[11] = 20 mg/kg i.v., VAS 0.02 i.u./kg, 60 min
[12] = 20 mg/kg i.v., VAS 0.02 i.u./kg, 90 min
[13] = 20 mg/kg i.v., VAS 0.02 i.u./kg, 120 min
[14] = 20 mg/kg i.v., VAS 0.02 i.u./kg, 180 min
[15] = 20 mg/kg i.v., VAS 0.02 i.u./kg, 240 min
[16] = 20 mg/kg i.v., VAS 0.02 i.u./kg, 300 min

T1 sequence (Q00788 whole entry): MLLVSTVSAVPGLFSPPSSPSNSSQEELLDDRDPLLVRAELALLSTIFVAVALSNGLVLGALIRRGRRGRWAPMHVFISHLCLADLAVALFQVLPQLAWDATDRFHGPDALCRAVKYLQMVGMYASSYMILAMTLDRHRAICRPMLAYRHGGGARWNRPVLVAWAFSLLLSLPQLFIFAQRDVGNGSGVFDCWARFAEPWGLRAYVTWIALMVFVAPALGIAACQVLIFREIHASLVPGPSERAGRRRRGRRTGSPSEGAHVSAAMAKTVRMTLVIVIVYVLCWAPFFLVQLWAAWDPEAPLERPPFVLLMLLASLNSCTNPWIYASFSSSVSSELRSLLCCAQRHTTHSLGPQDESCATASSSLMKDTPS
Sequence of vasopressin V1 receptor (rat liver plasma membranes) (P30560 whole entry): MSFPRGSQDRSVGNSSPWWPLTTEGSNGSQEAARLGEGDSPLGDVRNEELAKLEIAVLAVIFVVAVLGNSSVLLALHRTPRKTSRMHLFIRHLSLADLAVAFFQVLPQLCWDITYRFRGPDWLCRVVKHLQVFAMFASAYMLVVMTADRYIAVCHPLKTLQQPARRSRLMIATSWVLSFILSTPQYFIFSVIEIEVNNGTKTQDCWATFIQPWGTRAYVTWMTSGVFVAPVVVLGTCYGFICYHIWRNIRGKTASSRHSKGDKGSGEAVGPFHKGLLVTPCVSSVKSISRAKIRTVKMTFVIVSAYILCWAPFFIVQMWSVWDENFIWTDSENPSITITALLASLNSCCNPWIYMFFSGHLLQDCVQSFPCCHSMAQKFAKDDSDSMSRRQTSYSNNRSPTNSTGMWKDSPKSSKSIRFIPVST

Compound | Osmolality (vasopressin V2; 10 mg/kg orally) [mOsm/kg] | Urine Volume (vasopressin V2; 10 mg/kg orally) [ml/4 hrs.] | IC50 [1] [nM] | IC50 [2] [nM] | Average Change (vasopressin V1; [3]) | Inhibition (vasopressin V1; [3]) [%] | Average Change (vasopressin V1; [4]) | Inhibition (vasopressin V1; [4]) [%] | Average Change (vasopressin V1; [5]) | Inhibition (vasopressin V1; [5]) [%] | Average Change (vasopressin V1; [6]) | Inhibition (vasopressin V1; [6]) [%] | Average Change (vasopressin V1; [7]) | Inhibition (vasopressin V1; [7]) [%] | Average Change (vasopressin V1; [8]) | Inhibition (vasopressin V1; [8]) [%] | Average Change (vasopressin V1; [9]) | Inhibition (vasopressin V1; [9]) [%] | Average Change (vasopressin V1; [10]) | Inhibition (vasopressin V1; [10]) [%] | other results
Cc1ccccc1C(=O)Nc1ccc(C(=O)N2Cc3ccccc3Sc3ccccc32)cc1 [Example 62, N-[4-[(Dibenz[b,f][1,4]thiazepin-10(11H)yl)carbonyl]-phenyl]-2-methylbenzamide] | 1034 | 7.7 | 858 | 404 | 57 | -44 | 61.5 | -2 | 13 | 67 | 23 | 42 | 23.5 | 41 | 24.5 | 38 | 30 | 24 | 25 | 37 | Average Change (vasopressin V1; [11]): 29.5; Inhibition (vasopressin V1; [11]): 51%; Average Change (vasopressin V1; [12]): 54; Inhibition (vasopressin V1; [12]): 11%; Average Change (vasopressin V1; [13]): 50; Inhibition (vasopressin V1; [13]): 17%; Average Change (vasopressin V1; [14]): 15; Inhibition (vasopressin V1; [14]): 75%; Average Change (vasopressin V1; [15]): 40.5; Inhibition (vasopressin V1; [15]): 33%; Average Change (vasopressin V1; [16]): 38; Inhibition (vasopressin V1; [16]): 37%
O=C(Nc1ccc(C(=O)N2Cc3ccccc3Cc3cc(Cl)ccc32)cc1)c1ccc(Cl)cc1Cl [Example 137, N-[4-[(2-Chloro-6,11-dihydro-5H-dibenz[b,e]azepin-5-yl)carbonyl]phenyl]2,4-dichlorobenzamide] | – | – | 64 | 76 | – | – | – | – | – | – | – | – | – | – | – | – | – | – | – | – | Osmolality (vasopressin V2; 30 mg/kg orally): 358 mOsm/kg; Urine Volume (vasopressin V2; 30 mg/kg orally): 15.8 ml/4 hrs.; MAX % Inhibition (vasopressin V1; 10 mg/kg i.v.): 52%; Time of max % inhibition (vasopressin V1; 10 mg/kg i.v.): 30 min
Cc1ccccc1C(=O)Nc1ccc(C(=O)N2Cc3ccccc3Cc3cc(Cl)ccc32)cc1 [Example 136] | – | – | 27 | 16 | – | – | – | – | – | – | – | – | – | – | – | – | – | – | – | – | Osmolality (vasopressin V2; 30 mg/kg orally): 306 mOsm/kg; Urine Volume (vasopressin V2; 30 mg/kg orally): 19 ml/4 hrs.; MAX % Inhibition (vasopressin V1; 10 mg/kg i.v.): 81%; Time of max % inhibition (vasopressin V1; 10 mg/kg i.v.): 30 min
CSc1ccccc1C(=O)Nc1ccc(C(=O)N2Cc3ccccc3Cc3ccccc32)cc1 [Example 61, N-[4-[(6.11-Dihydro-5H-dibenz[b.e]azepin-5-yl)-carbonyl]phenyl]-2-(methylthio)benzamide] | 975 | 9.3 | 68 | 52 | 21 | 26 | 32.5 | 37 | 13 | 54 | 8 | 72 | 12 | 58 | 15.5 | 46 | 12 | 58 | 15.5 | 46 | Average Change (vasopressin V1; [11]): 14.5; Inhibition (vasopressin V1; [11]): 72%; Average Change (vasopressin V1; [12]): 16.5; Inhibition (vasopressin V1; [12]): 68%; Average Change (vasopressin V1; [13]): 20; Inhibition (vasopressin V1; [13]): 61%; Average Change (vasopressin V1; [14]): 17.5; Inhibition (vasopressin V1; [14]): 66%; Average Change (vasopressin V1; [15]): 23; Inhibition (vasopressin V1; [15]): 55%; Average Change (vasopressin V1; [16]): 24; Inhibition (vasopressin V1; [16]): 53%
O=C(Nc1ccc(C(=O)N2Cc3ccccc3Cc3ccccc32)cc1)c1ccc(Cl)cc1Cl [Example 10, N-[4-[(6,11-Dihydro-5H-dibenz[b,e]azepin-5-yl)carbonyl]phenyl]2,4-dichlorobenzamide] | 1023 | 7.1 | 64 | 170 | 37.5 | -25 | 64.5 | -26 | 14.5 | 52 | 16 | 47 | 13.5 | 55 | 25.5 | 15 | 22.5 | 25 | 24.5 | 18 | Average Change (vasopressin V1; [11]): 22.5; Inhibition (vasopressin V1; [11]): 56%; Average Change (vasopressin V1; [12]): 23; Inhibition (vasopressin V1; [12]): 55%; Average Change (vasopressin V1; [13]): 22; Inhibition (vasopressin V1; [13]): 57%; Average Change (vasopressin V1; [14]): 29.5; Inhibition (vasopressin V1; [14]): 42%; Average Change (vasopressin V1; [15]): 34.5; Inhibition (vasopressin V1; [15]): 32%; Average Change (vasopressin V1; [16]): 34; Inhibition (vasopressin V1; [16]): 33%
